In the first test the test system is Influenza type A (strain A/PR/8/34, ATCC VR-95). Put plainly: Influenza antiviral assay: inhibition of virus-induced cytopathic effects (CPE) in MDCK cells, XTT dye reduction. The class given is cell-based. The following applies: Influenza A (H1N1), strain A/PR/8/34, MDCK cells, CPE inhibition at 4 days.
As a reminder, the EC50 is the concentration at which the effect is half-maximal. Lower therefore signals an effect from little substance. Molecule `CC(CCN1CN(C23c4ccccc4CC2Cc2ccccc23)n2ccc(=O)c(O)c2C1=O)c1ccccc1` (stereo not drawn) [Compound A33] showed an EC50 of 375 to 500 nM.

The test is the same for the next values; noted with them: Influenza A virus, H1N1 / PR/8, MDCK, 96 h, strain A/PR/8/34, MDCK cells, CPE inhibition at 4 days.
For `O=C1c2c(O)c(=O)ccn2N(C23c4ccccc4CC2Cc2cc(F)c(F)cc23)CN1Cc1cccc(F)c1` (stereo not drawn) [Compound A24, 1-(2,3-difluoro-9a,10-dihydroindeno[1,2-a]inden-4b(9H)-yl)-3-(3-fluorobenzyl)-5-hydroxy-2,3-dihydro-1H-pyrido[2,1-f][1,2,4]triazine-4,6-dione], the EC50 is above 500 nM.

With `O=C1c2c(O)c(=O)ccn2N(C23c4ccccc4CC2Cc2c3ccc(F)c2F)CN1CCc1ccccc1` (stereo not drawn) [Compound A25, 1-(1,2-difluoro-9a,10-dihydroindeno[1,2-a]inden-4b(9H)-yl)-5-hydroxy-3-phenethyl-2,3-dihydro-1H-pyrido[2,1-f][1,2,4]triazine-4,6-dione], the half-maximal effective concentration (EC50) was below 125 nM. The same measure, in the same setting: the figure for `O=C1c2c(O)c(=O)ccn2N(C23c4ccccc4CC2Cc2c3ccc(F)c2F)CN1Cc1cccc(F)c1` (stereo not drawn) [Compound A26, 1-(1,2-difluoro-9a,10-dihydroindeno[1,2-a]inden-4b(9H)-yl)-3-(3-fluorobenzyl)-5-hydroxy-2,3-dihydro-1H-pyrido[2,1-f][1,2,4]triazine-4,6-dione] is 375 to 500 nM. Still for that read-out and setting: for `O=C1c2c(O)c(=O)ccn2N(C23c4ccccc4CC2Cc2c3ccc(F)c2F)CN1CCc1cccc(F)c1` (stereo not drawn) [Compound A27, 1-(1,2-difluoro-9a,10-dihydroindeno[1,2-a]inden-4b(9H)-yl)-3-(3-fluorophenethyl)-5-hydroxy-2,3-dihydro-1H-pyrido[2,1-f][1,2,4]triazine-4,6-dione] the value was 125 to 250 nM. The molecule `O=C1c2c(O)c(=O)ccn2N(C23c4ccccc4CC2Cc2cc(F)c(F)cc23)CN1CCc1cccc(F)c1` (stereo not drawn) [Compound A28, 1-(2,3-difluoro-9a,10-dihydroindeno[1,2-a]inden-4b(9H)-yl)-3-(3-fluorophenethyl)-5-hydroxy-2,3-dihydro-1H-pyrido[2,1-f][1,2,4]triazine-4,6-dione] had an EC50 of 125 to 250 nM.

Take `O=C1c2c(O)c(=O)ccn2N(C23c4ccccc4CC2Cc2cc(F)c(F)cc23)CN1CCc1ccc(F)cc1` (stereo not drawn) [Compound A29, 1-(2,3-difluoro-9a,10-dihydroindeno[1,2-a]inden-4b(9H)-yl)-3-(4-fluorophenethyl)-5-hydroxy-2,3-dihydro-1H-pyrido[2,1-f][1,2,4]triazine-4,6-dione]: the EC50 was 125 to 250 nM. Still for that read-out and setting: the figure for `CN1CN(C23C(=Cc4ccccc42)Cc2ccccc23)n2ccc(=O)c(O)c2C1=O` (stereo not drawn) [Compound A30, 5-hydroxy-1-(indeno[1,2-a]inden-4b(9H)-yl)-3-methyl-2,3-dihydro-1H-pyrido[2,1-f][1,2,4]triazine-4,6-dione] is below 125 nM.

In the case of `O=C1c2c(O)c(=O)ccn2N(C23c4ccccc4CC2Cc2ccccc23)CN1Cc1cccc(Cl)c1F` (stereo not drawn) [Compound A31, 3-(3-chloro-2-fluorobenzyl)-1-(9a,10-dihydroindeno[1,2-a]inden-4b(9H)-yl)-5-hydroxy-2,3-dihydro-1H-pyrido[2,1-f][1,2,4]triazine-4,6-dione], the EC50 is above 500 nM.

`CC(CCN1CN(C23c4ccccc4CC2Cc2ccccc23)n2ccc(=O)c(O)c2C1=O)c1ccccc1` (stereo not drawn) [Compound A32, 1-(9a,10-dihydroindeno[1,2-a]inden-4b(9H)-yl)-5-hydroxy-3-(3-phenylbutyl)-2,3-dihydro-1H-pyrido[2,1-f][1,2,4]triazine-4,6-dione] had an EC50 above 500 nM. Same read-out and setting: the figure for `CCN1CN(C23c4cccc(F)c4CC2Cc2c(F)cccc23)n2ccc(=O)c(O)c2C1=O` (stereo not drawn) [Compound A34] is below 125 nM; for `CN1CN(C23c4ccccc4CC2Cc2c3ccc(F)c2Cl)n2ccc(=O)c(O)c2C1=O` (stereo not drawn) [Compound A46, 1-(1-Chloro-2-fluoro-9a,10-dihydroindeno[1,2-a]inden-4b(9H)-yl)-5-hydroxy-3-methyl-2,3-dihydro-1H-pyrido[2,1-f][1,2,4]triazine-4,6-dione] it is below 125 nM.

`CCN1CN(C23c4ccccc4CC2Cc2c3ccc(F)c2Cl)n2ccc(=O)c(O)c2C1=O` (stereo not drawn) [Compound A47] showed an EC50 below 125 nM.

`CCOC12Cc3ccccc3C1(N1CN(CC)C(=O)c3c(O)c(=O)ccn31)c1ccccc1C2` (stereo not drawn) [Compound A48, 1-(9a-Ethoxy-9a,10-dihydroindeno[1,2-a]inden-4b(9H)-yl)-3-ethyl-5-hydroxy-2,3-dihydro-1H-pyrido[2,1-f][1,2,4]triazine-4,6-dione] showed an EC50 below 125 nM. Still for that read-out and setting: for `COCCN1CN(C23c4cccc(F)c4CC2Cc2c(F)cccc23)n2ccc(=O)c(O)c2C1=O` (stereo not drawn) [Compound A49] the value was below 125 nM; for `CC(C)N1CN(C23c4ccccc4CC2(C)Cc2ccccc23)n2ccc(=O)c(O)c2C1=O` (stereo not drawn) [Compound A50, 5-hydroxy-3-isopropyl-1-(9a-methyl-9a,10-dihydroindeno[1,2-a]inden-4b(9H)-yl)-2,3-dihydro-1H-pyrido[2,1-f] [1,2,4] triazine-4,6-dione], below 125 nM. With `CCN1CN(C23c4cccc(F)c4CC2(C)Cc2c(F)cccc23)n2ccc(=O)c(O)c2C1=O` (stereo not drawn) [Compound A51], the EC50 is below 125 nM. `CCN1CN(C23c4ccccc4CC2Cc2ccc(F)cc23)n2ccc(=O)c(O)c2C1=O` (stereo not drawn) [Compound A52] gave an EC50 below 125 nM.

In turn, `CN1CN(C23c4ccccc4CC2Cc2ccc(F)cc23)n2ccc(=O)c(O)c2C1=O` (stereo not drawn) [Compound A53] registered an EC50 below 125 nM. Still for that read-out and setting: the figure for `CN1CN(C23c4cccc(F)c4CC2(C)Cc2c(F)cccc23)n2ccc(=O)c(O)c2C1=O` (stereo not drawn) [Compound A54] is below 125 nM; for `CCN1CN(C23c4ccccc4CC2Cc2c(Cl)cccc23)n2ccc(=O)c(O)c2C1=O` (stereo not drawn) [Compound A55] it is below 125 nM. Consider `CCN1CN(C23c4ccccc4CC2(CC)Cc2c3ccc(F)c2F)n2ccc(=O)c(O)c2C1=O` (stereo not drawn) [Compound A56], for which the EC50 is below 125 nM.

With `CCOC12Cc3ccccc3C1(N1CN(C)C(=O)c3c(O)c(=O)ccn31)c1ccccc1C2` (stereo not drawn) [Compound A57], the EC50 was below 125 nM. Same read-out and setting: the figure for `O=C1c2c(O)c(=O)ccn2N(C23c4cccc(F)c4CC2Cc2c(F)cccc23)CN1CCF` (stereo not drawn) [Compound A58] is below 125 nM; for `CN1C(=O)c2c(O)c(=O)ccn2N(C23c4cccc(F)c4CC2Cc2c(F)cccc23)C1CO` (stereo not drawn) [Compound A59] it is below 125 nM; for `CC1N(C)C(=O)c2c(O)c(=O)ccn2N1C12c3ccccc3CC1Cc1c(F)cccc12` (stereo not drawn) [Compound A60] it is below 125 nM. Same read-out and setting: the figure for `O=C1c2c(O)c(=O)ccn2N(C23c4ccccc4CC2Cc2c3ccc(F)c2F)CN1C1CC1` (stereo not drawn) [Compound A61] is below 125 nM; for `COC12Cc3ccccc3C1(N1CN(C)C(=O)c3c(O)c(=O)ccn31)c1ccccc1C2` (stereo not drawn) [Compound A62] it is 125 to 250 nM; for `CN1CN(C23c4ccccc4CC2(C(F)F)Cc2ccccc23)n2ccc(=O)c(O)c2C1=O` (stereo not drawn) [Compound A63] it is 125 to 250 nM. Same read-out and setting: the figure for `CC1N(C)C(=O)c2c(O)c(=O)ccn2N1C12c3ccccc3CC1Cc1c2ccc(F)c1F` (stereo not drawn) [Compound A64] is below 125 nM; for `O=C1c2c(O)c(=O)ccn2N(C23c4ccccc4CC2Cc2c(F)cccc23)CN1C1CC1` (stereo not drawn) [Compound A65] it is 125 to 250 nM; for `CCN1CN(C23c4cccc(C)c4CC2Cc2c(F)cccc23)n2ccc(=O)c(O)c2C1=O` (stereo not drawn) [Compound A66] it is 125 to 250 nM. Regarding `Cc1cccc2c1CC1Cc3c(F)cccc3C21N1CN(C)C(=O)c2c(O)c(=O)ccn21` (stereo not drawn) [Compound A67], the EC50 was below 125 nM. Molecule `O=C1c2c(O)c(=O)ccn2N(C23c4ccccc4CC2Cc2c(F)cccc23)CN1CCF` (stereo not drawn) [Compound A68] came in with an EC50 below 125 nM. Turning to `COCCN1CN(C23c4ccccc4CC2Cc2c(F)cccc23)n2ccc(=O)c(O)c2C1=O` (stereo not drawn) [Compound A69], the EC50 was below 125 nM. The same measure, in the same setting: for `COCCN1CN(C23c4ccccc4CC2Cc2c3ccc(F)c2F)n2ccc(=O)c(O)c2C1=O` (stereo not drawn) [Compound A70] the value was below 125 nM; for `O=C1c2c(O)c(=O)ccn2N(C23c4cccc(F)c4CC2Cc2c(F)cccc23)CN1CC(F)F` (stereo not drawn) [Compound A71], below 125 nM; for `O=C1c2c(O)c(=O)ccn2N(C23c4cccc(F)c4CC2Cc2c(F)cccc23)CN1CCCF` (stereo not drawn) [Compound A72], below 125 nM.

`CC1N(C)C(=O)c2c(O)c(=O)ccn2N1C12c3cccc(F)c3CC1Cc1c(F)cccc12` (stereo not drawn) [Compound A73] came in with an EC50 below 125 nM.

`O=C1c2c(O)c(=O)ccn2N(C23c4ccccc4CC2Cc2c3ccc(F)c2F)CN1CCF` (stereo not drawn) [Compound A74] came in with an EC50 of 125 to 250 nM. Molecule `O=C1c2c(O)c(=O)ccn2N(C23c4ccccc4CC2Cc2c(F)cccc23)CN1CC1CCOCC1` (stereo not drawn) [Compound A75] yielded an EC50 below 125 nM. With `O=C1c2c(O)c(=O)ccn2N(C23c4cccc(F)c4CC2Cc2c(F)cccc23)CN1CC1CC1` (stereo not drawn) [Compound A76], the EC50 is below 125 nM.

For the molecule `CCN1CN(C23c4ccccc4CC2Cc2c3ccc(F)c2C)n2ccc(=O)c(O)c2C1=O` (stereo not drawn) [Compound A77], the EC50 was below 125 nM. The same measure, in the same setting: the figure for `Cc1c(F)ccc2c1CC1Cc3ccccc3C21N1CN(C)C(=O)c2c(O)c(=O)ccn21` (stereo not drawn) [Compound A78] is below 125 nM. The same measure, in the same setting: for `O=C1c2c(O)c(=O)ccn2N(C23c4ccccc4CC2Cc2c(F)cccc23)CN1CCCF` (stereo not drawn) [Compound A79] the value was below 125 nM; for `O=C1c2c(O)c(=O)ccn2N(C23c4ccccc4CC2Cc2c3ccc(F)c2F)CN1CCCF` (stereo not drawn) [Compound A80], below 125 nM. `O=C1c2c(O)c(=O)ccn2N(C23c4cccc(F)c4CC2Cc2c(F)cccc23)CN1CC1CCOCC1` (stereo not drawn) [Compound A81]: the EC50 is 125 to 250 nM. Still for that read-out and setting: the figure for `CCN1CN(C23c4ccccc4CC2Cc2c(C)cccc23)n2ccc(=O)c(O)c2C1=O` (stereo not drawn) [Compound A82] is below 125 nM; for `O=C1c2c(O)c(=O)ccn2N(C23c4ccccc4CC2Cc2c(F)cccc23)CN1CC(F)F` (stereo not drawn) [Compound A83] it is below 125 nM; for `O=C1c2c(O)c(=O)ccn2N(C23c4ccccc4CC2Cc2c3ccc(F)c2F)CN1CC(F)F` (stereo not drawn) [Compound A84] it is below 125 nM. As to `Cc1ccc2c(c1F)CC1Cc3ccccc3C21N1CN(C)C(=O)c2c(O)c(=O)ccn21` (stereo not drawn) [Compound A85], the EC50 is 125 to 250 nM.

The values above are taken from patent publication US12037333B2, “Pyridopyrazine and pyridotriazine inhibitors of influenza virus replication” (priority 2018, dated 2024).
